From patent US11021442B2, “Process for the preparation of freeze-dried 2-[(3-aminopropyl)amino] ethanethiol formulation” (CLEVEXEL PHARMA, priority 2016, dated 2021) come the findings set out here.

Data set [1] concerns radiation-induced oral mucositis. The experiment in a line: Efficacy study, radiation-induced oral mucositis, 20 Gy single fraction (Example F-2). The class given is in vivo, C57BL/6 mice. As for the experimental part: Female C57BL/6 mice (12 weeks old) purchased from Janvier CERT (Le Genest St. Isle, France) were used after an acclimation time of 7 days. They had free access to food (SAFE reference R0340, Augy, France) and water. They were housed on a 12 hours light/dark cycle at a room temperature of 22° C.±2° C. and a relative humidity of 55%±15%.
Irradiation was carried out locally with a X-ray Varian NDI 226 tube (200 kV, 15 mA, 0.2 mm Cu) at a dose rate of 1.33 Gy/min, the rest of the body being protected by a lead shield. Mice were euthanized when body weight loss exceeded 20% of the initial weight for more than 24 hours or in case of severe clinical signs (ethical endpoints). […]
Two parameters were monitored: the body weight and the Parkins score. This represents an arbitrary score system devised by Parkins and co-workers with separate scores for edema and erythema evaluated by macroscopic observation (Parkins, C. S., Fowler, J. F., and Yu, S. (1983). A murine model of lip epidermal/mucosal reactions to X-irradiation. Radiotherapy and oncology: Journal of the European Society for Therapeutic Radiology and Oncology 1, 159-165). […]
The Parkins score is calculated as follows: “Parkins score”=edema score+erythema score.
A single dose irradiation was delivered to the snout of mice. This induced a mucosal/epidermal lip reaction that was monitored through macroscopic observation and scoring. […]

Data set [2] has the same test system. The experiment in a line: Second efficacy study, radiation-induced oral mucositis, 18 Gy single fraction (Example F-4). It counts as in vivo, mice. As for the experimental part: The experiment was conducted with gels containing 20, 40 or 80 mg/ml Amifostine (corresponding to 12.5, 25 or 50 mg/ml amifostine thiol respectively). A lower dose of irradiation (a single fraction irradiation of 18 Gy) was delivered to the snout, so that all the mice could be kept alive until the end of the experiment. Different amounts of compound were administered to mice (1; 2 or 4 mg per mouse).
The same experimental procedure as for in example F-2 was used. Briefly, mice were anesthetized, Amifostine or Amifostine thiol was delivered 10 minutes later or not depending on the group (gel application or intravenous injection), mice were irradiated dorsally at an 18 Gy dose 30 minutes after the administration of Amifostine or Amifostine thiol and awakened 20 minutes later.
[…] were allocated to 6 groups: • Control (n=6 mice); • Placebo gel (n=6 mice); • Amifostine thiol 20 mg/ml gel (1 mg amifostine/mouse, n=6 mice); • Amifostine thiol 40 mg/ml gel (2 mg amifostine/mouse, n=6 mice); • Amifostine thiol 80 mg/ml gel (4 mg amifostine/mouse, n=6 mice); and • Amifostine intravenous (IV) (20 mg/ml) (4 mg amifostine/mouse, n=5 mice).
For each group, the development of oral mucositis was evaluated on 5 or 6 mice depending on the group. An 18 Gy dose irradiation induced a less severe phenotype than the 20 Gy dose irradiation that was used in the first efficacy experiment.

Data set [3] has the same test system. As to the kind of experiment: Third efficacy study, radiation-induced oral mucositis, four fractions of 8 Gy (Example F-6). The class given is in vivo, mice. The text has this: Four fractions of 8 Gy were delivered for four consecutive days (everyday from day 0 to day 3; day 0 corresponding to the first day of treatment) to the snout. The fractionation scheme of four fractions of 8 Gy was chosen, because it is biologically equivalent to 1 fraction of 18 Gy (Biologically Effective Dose: BED 120 Gy). […] Thus, the compound was applied 4 times for four consecutive days. For each day, a similar experimental procedure as for in example F-2 was used. […] The same experimental procedure was repeated for 4 consecutive days.

The nature of data set [4]: Stability of lyophilized powder of aminothiol (WR-1065) at 25° C./60% RH under argon. The class given is physicochemical. As for the experimental part:
A stability study is performed to compare stability of: • WR-1065 obtained by conversion of amifostine (350 mg/ml or 500 mg/ml) in acidic condition (respectively HCl 1M or HCl 4M), diluted in water or in P407/P188 mixture and then lyophilized (based on examples described in parts A & B), and • WR-1065 hydrochloride salt crystalline powder.
Stability is assessed by analysis of samples stored under argon atmosphere at 25° C./60% RH. The aim of argon is to provide two materials under same stability condition.

Setting [5] is: T1m-25° C./60% RH, under argon atm.
Where [6] appears, read: T15d-25° C./60% RH, under argon atm.

Turning to `NCCCNCCSP(=O)(O)O` [Amifostine IV, Amifostine], the “effect on development and intensity of mucositis (Parkins score), in words” value in data set [1] (20 Gy single fraction to snout, 4 mg amifostine/mouse 30 minutes before irradiation, thiol gel = Gel n°1, Amifostine gel = Gel n°2) is reported as “mucosal reaction of moderate intensity”. Moreover, the “day after irradiation at which edema and erythema completely disappeared” value in data set [1] (20 Gy single fraction, 4 mg amifostine/mouse IV) came to 20 days. Further, in data set [2], the “effect on mucositis peak and healing period, in words” value is recorded as “healing period was nearly absent”. The results for the “day of acute peak of mucosal reaction” value in data set [2] (IV 4 mg amifostine/mouse) and in data set [3] (IV 2 mg amifostine/mouse) were 12 days and approximately 15 days, respectively. In addition, the “Parkins score at the peak of mucosal reaction” value in data set [2] (gels 1, 2 or 4 mg amifostine/mouse, IV 4 mg/mouse, 30 minutes before irradiation) worked out at 2.2; in data set [3] (day 0 to day 3, 2 mg amifostine per mouse before each fraction, thiol gel = Gel n°9), 2.6.

`NCCCNCCS` [WR-1065•2HCl native, 2-[(3-aminopropyl)amino]ethanethiol]: in data set [4] (T0, under argon atm.), the Amifostine is 0%, the Aminothiol was determined as 99.7%, the Disulfides came out at 0.3% and the Unknow result is on record as “<LOQ”. In data set [4] (setting [5]), this molecule came in with an Amifostine of 0%, an Aminothiol of 99.3%, a Disulfides of 0.5% and an Unknow of 0.2%. In addition, in data set [4] (setting [6]), the Amifostine worked out at 0%, the Aminothiol was 99.6%, the Disulfides is 0.4% and the Unknow entry is “<LOQ”.
